Laboratory results published in patent publication US20230399332A1, “IMIDAZO[1,2-a]PYRAZINE OR PYRAZOLO[1,5-a]PYRIMIDINE DERIVATIVE AND USE THEREOF” (TENCENT TECHNOLOGY (SHENZHEN) COMPANY LIMITED, priority 2022, published 2023).

biological target: LSD1 (Homo sapiens (Human), UniProt O60341); test: LSD1 inhibitory activity on an enzyme level, AlphaScreen method; assay type: biochemical; details: in vitro
Description: This experiment was carried out to test the in vitro inhibitory activity of the compounds of the present disclosure against LSD1.
Experimental steps and a method: In this experiment, the in vitro inhibitory activity of the compounds of the present disclosure against LSD1 on an enzyme level was tested by using an AlphaScreen method. The experimental steps are described as follows: • a) preparation of a 1× buffer: • preparing a 1× buffer (improved trihydroxymethylaminomethane buffer); • b) continuous dilution of the compounds: • transferring the compounds of the present disclosure to a porous plate by using Echo at a final DMSO concentration of 1%; • c) preparation of an enzyme solution: • preparing an enzyme solution in the 1× buffer; • d) preparation of a substrate solution: • adding polypeptide to the 1× buffer to prepare a substrate solution; • e) transferring 5 μL of the enzyme solution or the 1× buffer to the porous plate; • f) conducting incubation at room temperature for 15 min; • g) adding 5 μL of the substrate solution to each well to induce a reaction; • h) conducting incubation at room temperature for 40 min; • i) preparing a 1× Alphalisa buffer; • j) preparation of a 1× Alphalisa buffer solution of receptors and donors: • adding 15 μL of a receptor and donor solution in dark light environment, and conducting incubation at room temperature for 60 min; • k) reading an endpoint in an EnSpire Alpha mode; and • l) data processing: • calculating an inhibitory value according to an equation 1:
Inh %=(Max−Signal)/(Max−Min)*100; and equation 1: • calculating an IC50 value by using XL-Fit according to an equation 2:
Y=Bottom+(Top-Bottom)/(1+(IC50/X)[…]), equation 2: • where Y indicates the inhibitory rate, and X indicates the concentration of a compound.

Row | IC50 [nM] | Compound
1 | 37 | COc1ccc(-c2c(-c3ccc(C#N)c(F)c3)nc3c(N[C@@H]4CC[C@H](N)C4)nccn23)cc1F (relative stereo) [Compound 14, cis-4-(8-(((1R,3S)-3-aminocyclopentyl)amino)-3-(3-fluoro-4-methoxyphenyl)imidazo[1,2-a]pyrazin-2-yl)-2-fluorobenzonitrile]
2 | 0.97 | CC(C)(O)Cn1ncc2cc(-c3c(-c4ccc(C#N)c(F)c4)nc4c(N5CCC[C@@H](N)C5)nccn34)ccc21 [Compound 11, (R)-4-(8-(3-aminopiperidin-1-yl)-3-(1-(2-hydroxy-2-methylpropyl)-1H-indazol-5-yl)imidazo[1,2-a]pyrazin-2-yl)-2-fluorobenzonitrile]
3 | 6.3 | Cn1cc2cc(-c3c(-c4ccc(C#N)c(F)c4)nc4c(N5CCC[C@@H](N)C5)nccn34)ccc2n1 [Compound 17, (R)-4-(8-(3-aminopiperidin-1-yl)-3-(2-methyll-2H-indazol-5-yl)imidazo [1,2-a]pyrazin-2-yl)-2-fluorobenzonitrile]
4 | 12 | COc1ccc(-c2c(-c3ccc(C#N)c(F)c3)nc3c(NC4CCCNC4)nccn23)cc1F (stereo not shown) [Compound 7, 2-fluoro-4-(3-(3-fluoro-4-methoxyphenyl)-8-(piperidin-3-ylamino)imidazo[1,2-a]pyrazin-2-yl)benzonitrile]
5 | 2.5 | CC(C)(O)Cc1ccc(-c2c(-c3ccc(C#N)c(F)c3)nc3c(N4CCC[C@@H](N)C4)nccn23)c(F)c1 [Compound 22, (R)-4-(8-(3-aminopiperidin-1-yl)-3-(2-fluoro-4-(2-hydroxy-2-methylpropyl)phenyl)imidazo[1,2-a]pyrazin-2-yl)-2-fluorobenzonitrile]
6 | 15 | COc1ccc(-c2c(-c3ccc(C#N)c(F)c3)nc3c(NC4CCNC4)nccn23)cc1F (stereo not shown) [Compound 16, 2-fluoro-4-(3-(3-fluoro-4-methoxyphenyl)-8-(pyrrolidin-3-ylamino)imidazo[1,2-a]pyrazin-2-yl)benzonitrile]
7 | 1 | Cn1nnc2cc(-c3c(-c4ccc(C#N)c(F)c4)nc4c(N5CCC[C@@H](N)C5)nccn34)c(F)cc21 [Compound 30, (R)-4-(8-(3-aminopiperidin-1-yl)-3-(6-fluoro-1-methyl-1H-benzo[d][1,2,3]triazol-5-yl)imidazo[1,2-a]pyrazin-2-yl)-2-fluorobenzonitrile]
8 | 45 | COc1ccc(-c2c(-c3ccc(C#N)c(F)c3)nc3c(NCC4CCCN4)nccn23)cc1F (stereo not shown) [Compound 6, 2-fluoro-4-(3-(3-fluoro-4-methoxyphenyl)-8-((pyrrolidin-2-ylmethyl)amino)imidazo[1,2-a]pyrazin-2-yl)benzonitrile]
9 | 2.3 | Cn1ncc2cc(-c3c(-c4ccc(C#N)c(F)c4)nc4c(N5CCC[C@@H](N)C5)nccn34)ccc21 [Compound 5, (R)-4-(8-(3-aminopiperidin-1-yl)-3-(1-methyll-1H-indazol-5-yl)imidazo [1,2-a]pyrazin-2-yl)-2-fluorobenzonitrile]
10 | 56 | COc1ccc(-c2c(-c3ccc(C#N)c(F)c3)nc3c(NCC4CCNC4)nccn23)cc1F (stereo not shown) [Compound 13, 2-fluoro-4-(3-(3-fluoro-4-methoxyphenyl)-8-((pyrrolidin-3-ylmethyl)amino)imidazo[1,2-a]pyrazin-2-yl)benzonitrile]
11 | 7.4 | COc1ccc(-c2c(-c3ccc(C#N)c(F)c3)nc3c(N4CCC(N)CC4)nccn23)cc1F [Compound 1, 4-(8-(4-aminopiperidin-1-yl)-3-(3-fluoro-4-methoxyphenyl)imidazo [1,2-a]pyrazin-2-yl)-2-fluorobenzonitrile]
12 | 4.4 | CC(C)(O)Cn1nnc2cc(-c3c(-c4ccc(C#N)c(F)c4)nc4c(N5CCC[C@H](N)C5)nccn34)c(F)cc21 [Compound 23, (S)-4-(8-(3-aminopiperidin-1-yl)-3-(6-fluoro-1-(2-hydroxy-2-methylpropyl)-1H-benzo[d][1,2,3]triazol-5-yl)imidazo[1,2-a]pyrazin-2-yl)-2-fluorobenzonitrile]
13 | 0.88 | CN1CCOc2cc(-c3c(-c4ccc(C#N)c(F)c4)nc4c(N5CCC[C@@H](N)C5)nccn34)ccc21 [Compound 9, (R)-4-(8-(3-aminopiperidin-1-yl)-3-(4-methyll-3,4-dihydro-2H-benzo [b][1,4]oxazin-7-yl)imidazo[1,2-a]pyrazin-2-yl)-2-fluorobenzonitrile]
14 | 1.7 | Cn1ncc2cc(-c3c(-c4ccc(C#N)c(F)c4)nc4c(N5CCC[C@@H](N)C5)nccn34)ccc21 [Compound 8, (R)-4-(8-(3-aminopiperidin-1-yl)-3-(1-methyll-1H-indazol-5-yl)imidazo [1,2-a]pyrazin-2-yl)-2-fluorobenzonitrile]
15 | 7.5 | N#Cc1ccc(-c2nc3c(N4CCC[C@@H](N)C4)nccn3c2-c2cnn(CC(F)(F)F)c2)cc1F [Compound 10, (R)-4-(8-(3-aminopiperidin-1-yl)-3-(1-(2,2,2-trifluoroethyl)-1H-pyrazol-4-yl)imidazo[1,2-a]pyrazin-2-yl)-2-fluorobenzonitrile]
16 | 11 | COc1ccc(-c2c(-c3ccc(C#N)c(F)c3)nc3c(N[C@@H]4CC[C@@H](N)C4)nccn23)cc1F (relative stereo) [Compound 15, trans-4-(8-(((1R,3R)-3-aminocyclopentyl)amino)-3-(3-fluoro-4-methoxyphenyl)imidazo[1,2-a]pyrazin-2-yl)-2-fluorobenzonitrile]
17 | 0.7 | CCC(O)(CC)Cn1nnc2cc(-c3c(-c4ccc(C#N)c(F)c4)nc4c(N5CCC[C@H](N)C5)nccn34)c(F)cc21 [Compound 26, (S)-4-(8-(3-aminopiperidin-1-yl)-3-(1-(2-ethyl-2-hydroxybutyl)-6-fluoro-1H-benzo[d][1,2,3]triazol-5-yl)imidazo[1,2-a]pyrazin-2-yl)-2-fluorobenzonitrile]
18 | 2.3 | CC(C)(O)Cn1cc2cc(-c3c(-c4ccc(C#N)c(F)c4)nc4c(N5CCC[C@@H](N)C5)nccn34)c(F)cc2n1 [Compound 21, (R)-4-(8-(3-aminopiperidin-1-yl)-3-(6-fluoro-2-(2-hydroxy-2-methylpropyl)-2H-indazol-5-yl)imidazo[1,2-a]pyrazin-2-yl)-2-fluorobenzonitrile]
19 | 0.71 | CC(C)(O)Cn1ncc2cc(-c3c(-c4ccc(C#N)c(F)c4)nc4c(N5CCC[C@@H](N)C5)nccn34)c(F)cc21 [Compound 19, (R)-4-(8-(3-aminopiperidin-1-yl)-3-(6-fluoro-1-(2-hydroxy-2-methylpropyl)-1H-indazol-5-yl)imidazo[1,2-a]pyrazin-2-yl)-2-fluorobenzonitrile]
20 | 5.5 | CC(C)(O)Cn1nnc2cc(-c3c(-c4ccc(C#N)c(F)c4)nc4c(N5[C@@H]6CC[C@H]5C[C@@H](NC(=O)OC(C)(C)C)C6)nccn34)c(F)cc21 [Compound 28, ((1R,3r,5S)-8-(2-(4-cyano-3-fluorophenyl)-3-(6-fluoro-1-(2-hydroxy-2-methylpropyl)-1H-benzo[d][1,2,3]triazol-5-yl)imidazo[1,2-a]pyrazin-8-yl)-8-azabicyclo[3.2.1]octane-3-yl)carbamate]

Row | Compound | IC50 [nM]
21 | 4-(7-(4-aminopiperidin-1-yl)-3-(3-fluoro-4-methoxyphenyl)imidazo [1,5-a]pyrazin-2-yl)-2-fluorobenzonitrile [Compound 3] | 2.6
22 | (R)4-(7-(3-aminopiperidin-1-yl)-3-(3-fluoro-4-methoxyphenyl)imidazo [1,5-a]pyrazin-2-yl)-2-fluorobenzonitrile [Compound 4] | 1
